Measurements from patent publication US20250269000A1, “ANTI-TUMOUR RESPONSES TO CYTOKERATINS” (SCANCELL LIMITED, priority 2020, published 2025).
Where a SMILES comes first, the peptide text is derived from it. Where no end group is shown, it is not given here. [ ]: non-standard residue; d: D form. Cit = NC(=O)NCCC[C@H](N)C(=O)O

Tests used:
[1] = tested on: B16 HHDII/iDP4 tumour cells; experiment: Tumour challenge, B16 HHDII/iDP4 in HHDII/DP4 mice; type: in vivo; details: immunised tumour bearing HHDII/DP4 mice
Source text: HHDII/DP4 mice were challenged with B16 tumour with IFNγ inducible DP4. Four days later the HHDII/DP4 mice were immunised with Cyk8 371-388 cit or Cyk8 371-388 wt peptide on days 4, 11 and 18. Overall survival (A), tumour volume (B) at day 29 and tumour volume throughout the study (C), post tumour implant are shown for unimmunised control mice and mice immunised with either Cyk8 371-388 cit peptide or Cyk8 371-388 wt peptide. Statistical differences between immunised and control mice were determined by Mantel-Cox test, p values are shown. The tumour volume medians and p values are shown as determined by Mann Whitney U test, n=10 in all group.
HHDII/DP4 mice were challenged with B16 tumour with IFNγ inducible DP4. Four days later the HHDII/DP4 mice were immunised with Cyk8 371-388 cit peptide on days 4, 11 and 18. Overall survival (A), tumour volume (B) at day 24 and tumour volume throughout the study (C), post tumour implant are shown for unimmunised control mice and mice immunised with Cyk8 101-120 cit peptide. Statistical differences between immunised and control mice were determined by Mantel-Cox test, p values are shown. The tumour volume medians and p values are shown as determined by Mann Whitney U test, n=10 in all group.
For tumour challenge experiments, mice were challenged with 1×10^5 B16 HHDII/iDP4 cells subcutaneously on the right flank […] before primary immunisation (unless stated otherwise) and then immunised as described above. Tumour growth was monitored at 3-4 days intervals and mice humanely euthanised once tumour reached ≥10 mm in diameter.
The effect of immunisation with Cyk8 371-388 (cit and wt) on the growth of the mouse B16 melanoma cell line transfected with IFNγ inducible human DP4 (iDP4) was assessed in HHDII/DP4 transgenic mice (FIG. 9A). […]
The effect of immunisation with Cyk8 101-120 cit on the growth of the mouse B16 melanoma cell line transfected with IFNγ inducible human DP4 (iDP4) was assessed in HHDII/DP4 transgenic mice (FIG. 10A). […]

[2] = tested on: HHDII/DP4 transgenic mice; experiment: Ex vivo IFNγ ELISpot on splenocytes of peptide-immunised HHDII/DP4 mice; type: in vivo, mouse; details: for IFNγ responses detected in immunised mice: 25 μg peptide s.c. with CpG/MPLA once a week for three weeks, ELISpot 7 days after third immunisation
Experimental: The HHDII/HLA-DP4 transgenic strain of mouse as described in patent WO2013/017545 A1 (EMMA repository, France) and C57BL/6 mice (Charles River, UK) were used, aged between 8 and 12 weeks, and cared for by the staff at Nottingham Trent University. All work was carried out under a Home Office project licence. Peptides were dissolved in 10% dimethylformamide to 1 mg/mL and then emulsified (a series of dilutions) with the adjuvant CpG and MPLA 6 μg/mouse of each (Invivogen, UK). Peptides (25 μg/mouse) were injected subcutaneously at the base of the tail.
ELISpot assays were performed using murine IFNγ capture and detection reagents according to the manufacturer's instructions (Mabtech, Sweden). In brief, anti-IFNγ antibody was coated onto wells of a 96-well Immobilin-P plate. Synthetic peptides (at a variety of concentrations) and 5×10^5 per well splenocytes were added to the wells of the plate in triplicate. LPS at 5 μg/mL was used as a positive control. Peptide pulsed target cells were added where relevant at 5×10^4 per well in triplicate and plates incubated for 40 hours at 37° C. After incubation, captured IFNγ was detected by a biotinylated anti-IFNγ antibody and developed with a streptavidin alkaline phosphatase and chromogenic substrate. Lipopolysaccharide (LPS; 5 μg/mL) was used as a positive control. For blocking studies, anti-CD4 blocking antibody (RPA-T4) and anti-CD8 blocking antibody (2.43) from Bioxcell were used at 20 μg/mL. Spots were analysed and counted using an automated plate reader (Cellular Technologies Ltd).
HHDII/DP4 and C57BL/6 mice were immunised with human citrullinated peptides in combination with CpG/MPLA as an adjuvant. 25 μg of peptide was administered subcutaneously as a single immunisation given once a week for three weeks Mice were culled 7 days after the third immunisation, the immune response to each peptide was assessed by ex vivo IFNγ ELISpot (FIG. 2). We have previously shown that citrullinated peptides can induce responses in the transgenic DR4 mouse strain. Given that different mouse strains have different MHC repertoires, the transgenic strain HHDII/DP4 and non-transgenic C57BL/6 mice were used for screening.
To determine if the immune response to the Cyk8 peptides is specific to the citrullinated peptide and not the wild type (wt) version, HHDII/DP4 transgenic mice were immunised with Cyk8 101-120 cit, 133-151 cit, 217-236 cit, 371-388 cit, 381-399 cit or Cyk8 101 wt, 133-151 wt, 371-388 wt peptides. HHDII/DP4 mice received 25 μg peptide with CpG/MPLA subcutaneously once a week for three weeks. Mice were culled 7 days after the third immunisation, the immune response to each peptide was assessed by ex vivo ELISpot (FIGS. 3A and 3B).
To determine whether the response to Cyk8 8-26 cit, Cyk8 101-120 cit, Cyk8 133-151 cit, Cyk8 371-388 cit, Cyk8 381-399 cit is CD4 dependent HHDII/DP4 transgenic mice and C57BL/6 mice received 25 μg peptide subcutaneously in combination with CpG/MPLA as an adjuvant, once a week for three weeks (FIG. 6A HHDII/DP4, FIG. 6B C57BL/6). Mice were culled 7 days after the third immunisation, an ELISpot assay was performed in the presence of an anti CD4 or CD8 antibody. […]

[3] = HHDII/DP4, blocking antibody 20 μg/mL

Compound | associated toxicity [1] | IFNγ responses detected in immunised mice [2] | further results
CC[C@H](C)[C@H](NC(=O)[C@H](Cc1ccccc1)NC(=O)[C@H](CO)NC(=O)[C@H](C)NC(=O)[C@H](Cc1ccccc1)NC(=O)[C@@H](N)CCCCN)C(=O)N[C@@H](CC(=O)O)C(=O)N[C@@H](CCCCN)C(=O)N[C@H](C(=O)N[C@@H](CCCNC(N)=O)C(=O)N[C@@H](Cc1ccccc1)C(=O)N[C@@H](CC(C)C)C(=O)N[C@@H](CCC(=O)O)C(=O)N[C@@H](CCC(N)=O)C(=O)N[C@@H](CCC(N)=O)C(=O)N[C@@H](CC(N)=O)C(=O)N[C@@H](CCCCN)C(=O)N[C@@H](CCSC)C(=O)N[C@@H](CC(C)C)C(=O)N[C@@H](CCC(=O)O)C(=O)O)C(C)C [Cyk8 101-120 cit, KFASFIDKV-cit-FLEQQNKMLE] (H-KFASFIDKV[Cit]FLEQQNKMLE-OH) | no associated toxicity |  | 
CC[C@H](C)[C@H](NC(=O)[C@H](CCC(=O)O)NC(=O)[C@@H](NC(=O)[C@H](CC(=O)O)NC(=O)[C@H](CC(C)C)NC(=O)[C@H](C)NC(=O)[C@H](CC(C)C)NC(=O)[C@H](CCCCN)NC(=O)[C@@H](NC(=O)[C@H](CC(N)=O)NC(=O)[C@H](CCSC)NC(=O)[C@H](CC(C)C)NC(=O)[C@H](CCC(=O)O)NC(=O)[C@H](CCC(N)=O)NC(=O)[C@H](Cc1ccc(O)cc1)NC(=O)[C@H](CCC(=O)O)NC(=O)[C@H](CCCNC(N)=O)NC(=O)[C@@H](N)CC(C)C)C(C)C)[C@@H](C)CC)C(=O)O [Cyk8 371-388 cit, L-cit-EYQELMNVKLALDIEI] (H-L[Cit]EYQELMNVKLALDIEI-OH) | no associated toxicity |  | 
CC[C@H](C)[C@H](NC(=O)[C@H](CCC(=O)O)NC(=O)[C@@H](NC(=O)[C@H](CC(=O)O)NC(=O)[C@H](CC(C)C)NC(=O)[C@H](C)NC(=O)[C@H](CC(C)C)NC(=O)[C@H](CCCCN)NC(=O)[C@@H](NC(=O)[C@H](CC(N)=O)NC(=O)[C@H](CCSC)NC(=O)[C@H](CC(C)C)NC(=O)[C@H](CCC(=O)O)NC(=O)[C@H](CCC(N)=O)NC(=O)[C@H](Cc1ccc(O)cc1)NC(=O)[C@H](CCC(=O)O)NC(=O)[C@H](CCCNC(=N)N)NC(=O)[C@@H](N)CC(C)C)C(C)C)[C@@H](C)CC)C(=O)O [Cyk8 371-388 wt, LREYQELMNVKLALDIEI, reference compound] (H-LREYQELMNVKLALDIEI-OH) | no associated toxicity |  | 
KFASFIDKVRFLEQQNKMLE (listed as Homo sapiens) [Cyk8 101-120 wt, wild type (unmodified) Cyk8 101-120 peptide, reference compound] |  | Low to moderate | 
KLALDIEIATY-cit-KLLEGEE (KLALDIEIATY[Cit]KLLEGEE) [Cyk8 381-399 cit, Cyk8 381-399, citrullinated at position 392] |  | Moderate to high | IFNγ response in the presence of the CD8 antibody [2, 3]: significantly reduced; IFNγ response in the presence of the anti CD4 antibody [2, 3]: significantly reduced; cross-reactivity of the response to the wt version ([2]; HHDII/DP4 mice immunised with cit peptide): no cross-reactivity; IFNγ response to citrullinated peptide compared to media only ([2]; screening, HHDII/DP4 mice, 25 μg peptide with CpG/MPLA weekly for three weeks): significant immune responses; T cell responses in HLA-DP4 transgenic mice ([2]; summary statement): potent T cell responses; reactivity to the unmodified wildtype sequence ([2]; summary statement): minimal reactivity
RSNMDNMFESYINNLRRQL (listed as Homo sapiens) [Cyk8 131-15 wt, wild type (unmodified) Cyk8 133-151 peptide, reference compound] |  | Low to moderate | 
